Results taken from US7781407B2, “Calcium gluconolactate compositions and methods of making same” (priority 2002, dated 2010).

Assay: Apparent and compacted bulk density (mass/volume, meshes 30, 80, 100)
Type: physicochemical
From the text: 2.—Apparent and compacted bulk density; for the test calcium gluconolactonate, from formula III, was classified in 3 different types of mesh 30, 80, and 100 to determine its apparent density. The same procedure was used to determine compacted bulk density. The compound was classified in the same 30, 80, and 100 meshes, determining its density, in both cases, in grams per milliliter, as shown in table II below:
The average density corresponds to a 30 mesh, for the most common form of the product. A table is attached with different tests performed to determine the average apparent and compacted bulk density, resulting, in the first case, in a[n apparent] density of 0.690 and a compacted bulk density of 0.883, as shown in table III below: […]

[1] = 30 mesh, average of tests 1 to 31

**Q.** Which “Apparent Density (30 mesh)” value (30 mesh, Mass/Volume) does the source give for CC(O)C(=O)[O-].O=C([O-])[C@H](O)[C@@H](O)[C@H](O)[C@H](O)CO.[Ca+2] [calcium gluconolactate] here?
**A.** 0.690 g/mL

**Q.** And the “Compacted Bulk Density (30 mesh)” value (30 mesh, Mass/Volume)?
**A.** 0.883 g/mL

**Q.** What about the “Apparent density, average” value [1] of the same compound?
**A.** 0.690

**Q.** What about the “Compacted Bulk density, average” value [1] of the same compound?
**A.** 0.883

**Q.** What about the “Apparent Density (80 mesh)” value (80 mesh, Mass/Volume) of the same compound?
**A.** 0.655 g/mL

**Q.** And the “Compacted Bulk Density (80 mesh)” value (80 mesh, Mass/Volume)?
**A.** 0.904 g/mL

**Q.** And the “Apparent Density (100 mesh)” value (100 mesh, Mass/Volume)?
**A.** 0.609 g/mL

**Q.** And the “Compacted Bulk Density (100 mesh)” value (100 mesh, Mass/Volume)?
**A.** 0.874 g/mL
